Measurements: ChEMBL document CHEMBL5380791, “Modular Biomimetic Strategy Enabled Discovery of Simplified Pseudo-Natural Macrocyclic P-Glycoprotein Inhibitors Capable of Overcoming Multidrug Resistance” (J Med Chem, 2023)
Activity calls are given as the source filed them. The calls are words filed in the database; no cut-off is given here.

How the values were obtained:
[1] = test system: KBv200; assay: Induction of apoptosis in human KBv200 cells assessed as increase in cleaved caspase 9 level at 5 uM incubated for 24 hrs by Western blotting analysis; format: functional, cell-based
[2] = Half life in CD-1 mouse at 3 mg/kg, iv; format: ADME, organism-based; conditions: in vivo
[3] = AUCinf in CD-1 mouse at 3 mg/kg, iv; format: ADME, organism-based; parameters: dose 3 mg/kg, route iv; conditions: in vivo
[4] = AUCinf in CD-1 mouse at 30 mg/kg, po; format: ADME, organism-based; parameters: dose 30 mg/kg, route po; conditions: in vivo
[5] = Bioavailability in CD-1 mouse at 25 mg/kg, ip; format: ADME, organism-based; conditions: in vivo
[6] = test system: KBv200; assay: Reversal of adriamycin resistance in human KBv200 cells assessed as reduction in cell viability incubated for 72 hrs in presence of adriamycin (reference value: 1291.2+/-308.9 nM); format: functional, cell-based; conditions: KBv200, 72 h
[7] = Half life in CD-1 mouse at 30 mg/kg, po; format: ADME, organism-based; conditions: in vivo
[8] = Clearance in CD-1 mouse at 3 mg/kg, iv; format: ADME, organism-based; conditions: in vivo
[9] = test system: KBv200; assay: Antitumor activity against human KBv200 cells xenografted in Balb/cA nude mouse assessed as tumor growth inhibition at 75 mg/kg, ip qd administered for 13 days; format: functional; conditions: KBv200, 312 h, time 13 day
[10] = test system: KB; assay: Reversal of vinorelbine resistance in human KB cells assessed as reduction in cell viability incubated for 72 hrs in presence of vinorelbine (reference value: 7.4+/-2.2 nM); format: functional, cell-based
[11] = test system: KBv200; assay: Downregulation of P-gp mRNA expression level in human KBV200 cells by qRT-PCR analysis; format: functional, cell-based
[12] = test system: K562; assay: Reversal of vinorelbine resistance in human K562 cells assessed as reduction in cell viability incubated for 72 hrs in presence of vinorelbine (reference value: 5.9+/-0.2 nM); format: functional, cell-based; conditions: K562, 72 h
[13] = Toxicity in Balb/cA nude mouse xenografted with human KBv200 cells assessed as mortality at 75 mg/kg, ip qd administered for 13 days in presence of vinorelbine; format: organism-based; conditions: in vivo, 312 h, time 13 day
[14] = Cytotoxicity against human HEK293T cells assessed as reduction in cell viability incubated for 48 hrs by CCK-8 assay; format: toxicity, cell-based, HEK-293T
[15] = test system: K562/Adr; assay: Reversal of vinorelbine resistance in human K562/Adr cells assessed as reduction in cell viability incubated for 72 hrs in presence of vinorelbine (reference value: 7320.6+/-2115.2 nM); format: functional, cell-based
[16] = test system: KBv200; assay: Induction of apoptosis in human KBv200 cells assessed as increase in cleaved caspase 9 level at 5 uM incubated for 24 hrs in presence of vinorelbine by Western blotting analysis; format: functional, cell-based
[17] = test system: KBv200; assay: Induction of apoptosis in human KBv200 cells assessed as increase in cleaved caspase 3 level at 5 uM incubated for 24 hrs in presence of vinorelbine by Western blotting analysis; format: functional, cell-based
[18] = test system: KBv200; assay: Reversal of paclitaxel resistance in human KBv200 cells assessed as reduction in cell viability incubated for 72 hrs in presence of paclitaxel (reference value: 392.9+/-196.5 nM); format: functional, cell-based; conditions: KBv200, 72 h
[19] = test system: NCI/ADR-RES; assay: Reversal of vinorelbine resistance in human NCI/ADR-RES cells assessed as reduction in cell viability incubated for 72 hrs in presence of vinorelbine (reference value: 6125.7+/-3267.7 nM); format: functional, cell-based
[20] = Cmax in CD-1 mouse at 30 mg/kg, po; format: ADME, organism-based; parameters: dose 30 mg/kg, route po; conditions: in vivo
[21] = Cytotoxicity against human L02 cells assessed as reduction in cell viability incubated for 48 hrs by CCK-8 assay; format: toxicity, cell-based
[22] = AUCinf in CD-1 mouse at 25 mg/kg, ip; format: ADME, organism-based; parameters: dose 25 mg/kg, route ip; conditions: in vivo
[23] = test system: KBv200; assay: Reversal of vinorelbine resistance in human KBv200 cells assessed as reduction in cell viability incubated for 72 hrs in presence of vinorelbine (reference value: 224 to 228.30 nM); format: functional, cell-based; conditions: KBv200, 72 h, read-out: IC50
[24] = Tmax in CD-1 mouse at 30 mg/kg, po; format: ADME, organism-based; conditions: in vivo
[25] = Tmax in CD-1 mouse at 25 mg/kg, ip; format: ADME, organism-based; conditions: in vivo
[26] = test system: KBv200; assay: Antitumor activity against human KBv200 cells xenografted in Balb/cA nude mouse assessed as T/C ratio at 75 mg/kg, ip qd administered for 13 days in presence of vinorelbine; format: functional; conditions: time 13 day
[27] = test system: OVCAR-8; assay: Reversal of vinorelbine resistance in human OVCAR-8 cells assessed as reduction in cell viability incubated for 72 hrs in presence of vinorelbine (reference value: 16.2+/-4.7 nM); format: functional, cell-based; conditions: OVCAR-8, 72 h
[28] = test system: KBv200; assay: Antitumor activity against human KBv200 cells xenografted in Balb/cA nude mouse assessed as mean tumor volume at 75 mg/kg, ip qd administered for 13 days in presence of vinorelbine; format: functional; conditions: time 13 day
[29] = Half life in CD-1 mouse at 25 mg/kg, ip; format: ADME, organism-based; conditions: in vivo
[30] = test system: KBv200; assay: Antitumor activity against human KBv200 cells xenografted in Balb/cA nude mouse assessed as mean tumor volume at 75 mg/kg, ip qd administered for 13 days; format: functional; conditions: time 13 day
[31] = Cmax in CD-1 mouse at 25 mg/kg, ip; format: ADME, organism-based; parameters: dose 25 mg/kg, route ip; conditions: in vivo
[32] = test system: KBv200; assay: Induction of apoptosis in human KBv200 cells assessed as increase in cleaved caspase 3 level at 5 uM incubated for 24 hrs by Western blotting analysis; format: functional, cell-based
[33] = AUClast in CD-1 mouse at 25 mg/kg, ip; format: ADME, organism-based; parameters: dose 25 mg/kg, route ip; conditions: in vivo
[34] = Toxicity in Balb/cA nude mouse xenografted with human KBv200 cells assessed as changes in body weight at 75 mg/kg, ip qd administered for 13 days; format: organism-based; conditions: in vivo, 312 h, time 13 day
[35] = Toxicity in Balb/cA nude mouse xenografted with human KBv200 cells assessed as mortality at 75 mg/kg, ip qd administered for 13 days; format: organism-based; conditions: in vivo, 312 h, time 13 day
[36] = test system: KBv200; assay: Reversal fold, ratio of vinorelbine IC50 for cytotoxicity against human KBv200 cells over test compound IC50 for reversal of vinorelbine resistance in human KBv200 cells; format: functional
[37] = test system: KBv200; assay: Induction of apoptosis in human KBv200 cells assessed as increase in cleaved PARP level at 5 uM incubated for 24 hrs by Western blotting analysis; format: functional, cell-based
[38] = biological target: ATP-dependent translocase ABCB1 (Homo sapiens, UniProt P08183); assay: Inhibition of P-gp in human KBv200 cells assessed as induction of conformation change by measuring increase in UIC-2 binding level at 50 uM incubated for 10 mins by UIC-2 reactivity shift assay; format: cell-based; conditions: kbv200, 10 min
ATP-dependent translocase ABCB1, sequence (P08183 whole entry): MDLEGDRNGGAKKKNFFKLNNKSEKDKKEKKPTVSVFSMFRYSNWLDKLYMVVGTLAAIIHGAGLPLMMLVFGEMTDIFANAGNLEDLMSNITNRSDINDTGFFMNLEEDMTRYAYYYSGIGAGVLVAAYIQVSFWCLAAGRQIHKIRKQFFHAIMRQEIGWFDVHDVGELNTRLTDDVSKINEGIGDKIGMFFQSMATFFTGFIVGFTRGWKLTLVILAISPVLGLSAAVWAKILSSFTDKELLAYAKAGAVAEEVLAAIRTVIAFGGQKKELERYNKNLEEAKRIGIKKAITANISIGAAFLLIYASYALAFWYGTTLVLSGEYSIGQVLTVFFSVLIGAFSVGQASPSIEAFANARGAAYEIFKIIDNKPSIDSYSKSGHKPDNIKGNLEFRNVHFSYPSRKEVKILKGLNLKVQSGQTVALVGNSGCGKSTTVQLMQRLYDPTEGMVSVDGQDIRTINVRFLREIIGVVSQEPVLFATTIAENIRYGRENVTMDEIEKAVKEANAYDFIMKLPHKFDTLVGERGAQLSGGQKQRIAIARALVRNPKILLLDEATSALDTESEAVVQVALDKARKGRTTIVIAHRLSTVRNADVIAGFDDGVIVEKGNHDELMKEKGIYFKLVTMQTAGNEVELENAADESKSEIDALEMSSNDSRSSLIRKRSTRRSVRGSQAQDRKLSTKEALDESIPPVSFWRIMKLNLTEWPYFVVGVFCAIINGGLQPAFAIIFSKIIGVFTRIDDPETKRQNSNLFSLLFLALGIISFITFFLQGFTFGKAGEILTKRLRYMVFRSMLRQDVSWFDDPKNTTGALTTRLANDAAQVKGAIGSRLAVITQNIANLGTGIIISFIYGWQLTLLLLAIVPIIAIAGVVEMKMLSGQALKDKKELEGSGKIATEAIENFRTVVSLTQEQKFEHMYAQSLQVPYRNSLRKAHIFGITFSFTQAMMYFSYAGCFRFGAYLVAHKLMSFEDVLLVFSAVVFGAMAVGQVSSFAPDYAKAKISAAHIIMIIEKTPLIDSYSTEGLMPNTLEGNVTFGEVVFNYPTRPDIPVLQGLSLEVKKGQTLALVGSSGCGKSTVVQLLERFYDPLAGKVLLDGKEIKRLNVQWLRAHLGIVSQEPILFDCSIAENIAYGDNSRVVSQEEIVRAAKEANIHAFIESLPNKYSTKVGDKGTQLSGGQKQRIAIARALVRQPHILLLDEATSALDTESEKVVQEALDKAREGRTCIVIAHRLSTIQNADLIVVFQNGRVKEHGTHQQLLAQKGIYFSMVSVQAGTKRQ

[39] = Oral bioavailability in CD-1 mouse at 30 mg/kg; format: ADME, organism-based; conditions: in vivo
[40] = test system: KBv200; assay: Antitumor activity against human KBv200 cells xenografted in Balb/cA nude mouse assessed as T/C ratio at 75 mg/kg, ip qd administered for 13 days; format: functional; conditions: time 13 day
[41] = test system: KBv200; assay: Antitumor activity against human KBv200 cells xenografted in Balb/cA nude mouse assessed as tumor growth inhibition at 75 mg/kg, ip qd administered for 13 days in presence of vinorelbine; format: functional; conditions: KBv200, 312 h, time 13 day
[42] = test system: KBv200; assay: Antitumor activity against human KBv200 cells xenografted in Balb/cA nude mouse assessed as mean tumor volume at 75 mg/kg, ip administered as single dose and measured on day 0; format: functional
[43] = AUClast in CD-1 mouse at 30 mg/kg, po; format: ADME, organism-based; parameters: dose 30 mg/kg, route po; conditions: in vivo
[44] = AUClast in CD-1 mouse at 3 mg/kg, iv; format: ADME, organism-based; parameters: dose 3 mg/kg, route iv; conditions: in vivo
[45] = test system: KBv200; assay: Induction of apoptosis in human KBv200 cells assessed as increase in cleaved PARP level at 5 uM incubated for 24 hrs in presence of vinorelbine by Western blotting analysis; format: functional, cell-based
[46] = test system: KBv200; assay: Antitumor activity against human KBv200 cells xenografted in Balb/cA nude mouse assessed as mean tumor volume at 75 mg/kg, ip administered as single dose and measured on day 0 in presence of vinorelbine; format: functional
[47] = Toxicity in Balb/cA nude mouse xenografted with human KBv200 cells assessed as changes in body weight at 75 mg/kg, ip qd administered for 13 days in presence of vinorelbine; format: organism-based; conditions: in vivo, 312 h, time 13 day

SMILES: CC(C)[C@H]1NC(=O)/C(c2ccccc2)=C\C=C(\c2ccccc2)CNC(=O)CCCCCCCCCCCNC1=O
- Activity [1]: inactive
- half-life [2]: 73.8 min
- AUC(0-inf) [3]: 888 ng·h/mL
- AUC(0-inf) [4]: 2200 ng·h/mL
- bioavailability [5]: 59.5%
- IC50 [6]: 107 nM
- half-life [7]: 74.4 min
- clearance [8]: 58.2 mL/min/kg
- inhibition in vivo at 75 mg/kg [9]: -13%
- IC50 [10]: 2.2 nM
- Activity [11]: inactive
- IC50 [12]: 1.4 nM
- Activity [13]: Non-Toxic
- IC50 at 48 h [14]: > 100 µM
- IC50 [15]: 1210 nM
- Activity [16]: Active
- Activity [17]: Active
- IC50 [18]: 8 nM
- IC50 [19]: 619 nM
- Cmax [20]: 1380 ng/mL
- IC50 at 48 h [21]: > 100 µM
- AUC(0-inf) [22]: 5100 ng·h/mL
- IC50 [23]: 0.74 nM
- Tmax [24]: 15 min
- Tmax [25]: 7.2 min
- T/C [26]: 52%
- IC50 [27]: 6.8 nM
- Activity [28]: 1132.6 mm3
- half-life [29]: 672 min
- Activity [30]: 2318.6 mm3
- Cmax [31]: 2390 ng/mL
- Activity [32]: inactive
- AUC(0-t) [33]: 4400 ng·h/mL
- Activity [34]: Non-Toxic
- Activity [35]: Non-Toxic
- Ratio IC50 [36]: 386
- Activity [37]: inactive
- Activity [38]: Active
- bioavailability [39]: 24.7%
- T/C [40]: 113%
- inhibition in vivo at 75 mg/kg [41]: 48%
- Activity [42]: 121 mm3
- AUC(0-t) [43]: 2190 ng·h/mL
- AUC(0-t) [44]: 887 ng·h/mL
- Activity [45]: Active
- Activity [46]: 121.5 mm3
- Activity [47]: Non-Toxic
